In patent publication US20260138976A1 (Hoffmann-La Roche Inc., priority 2022, published 2026) one finds IC50, Emax and EC50 data, which are given here for 1 compound.

The structures appear in SMILES notation.

The target in assay [1] is T1, DGKα (hDGKalpha(1-735)-N-His) (Homo sapiens, UniProt P23743).
T1 construct: hDGKalpha(1-735)-N-His; His (N); made in house; host or cells: Sf21 insect cells (baculovirus)
Kind of assay: In vitro DGK inhibition assay, DGKalpha ADP Glo (in house). In kind it is biochemical. The settings on record: 4 nM DGKα, 25 μM ATP, 125 uM DLG in liposomes, 1 hour reaction. The essentials:
(§1)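 Full-length His-tagged human DGKα (4 nM) or DGKζ (2 nM), expressed in Sf21 cells, phosphorylated 125 µM DLG in PS/PC liposomes with ATP at 25 µM (α) or 50 µM (ζ) for 1 h. ADP was measured by ADP-Glo luminescence. Compounds were tested as 11-point 1:3 series in 2% DMSO.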
In general terms: ADP-Glo turns the ADP formed in a reaction into a luminescent signal.

The test system of assay [2] is MV-3 cells. Kind of assay: T-cell - TCB - MV3 killing assay. In kind it is cell-based, human. The method, then: All culturing steps are executed at 5% CO2, 37° C. and 95% humidity. MV-3 RFP cells are cultured in MV-3 medium (DMEM+10% FBS, 1× PenStrep and 0.5 μg/mL Puromycin) for at least 3 weeks. Cultured MV-3 cells at 80% confluency are washed once with PBS−− and trypsinized until detached. […] Cells are seeded with 100 μL/well into a 96-well plate (TTP, #92696), and placed for 40 minutes without moving at room temperature in order to achieve evenly distributed attachment of cells. Plates are then incubated until further use.
On the next day, expanded primary human T-cells are thawed and resuspended in T-cell medium to 4*10^6 cells/mL. For 3 hours, they are cultured in a 6-well plate with 6 mL per well at maximum. After culturing the T-cells, they are filtered through a cell strainer (Miltenyi Biotech, #130-041-407), counted again, and cell concentration is adjusted to 2*10^6 cells/mL.
MCSP-TCB or PBS are pre-diluted in T-cell medium (concentration depending on T-cell donor), 4 times more concentrated than the end-concentration. 60 μL/well of pre-dilutions are then distributed into a round bottom plate (Costar, #3799) according to plate layout. Compounds are added in a 9 pt dose response with the Tecan D300e Digital Dispenser, as well 4 times more concentrated than the end-concentration. DMSO concentration of all wells is adjusted to 0.8%, resulting in 0.2% as final concentration.
60 μL per well of T-cell suspension are added to the prepared round bottom plate and resuspended with a manual multichannel. 100 μL/well of the resuspended T-cell suspension including treatments are then transferred cautiously to the over-night cultured MV-3 cells according to plate layout. 100 μL T-cell medium only is added to the outer MV-3 wells only. Final compound DR is starting at 20 μM with a dilution factor of 3.333. Final TCB concentration is between 1.5 pM to 5 pM and was determined for each T-cell donor individually by running TCB titrations. For each donor, a TCB concentration was chosen which corresponds to 10-20% MV3 baseline cell killing in the absence of compound treatment. Positive control is the reference compound A1 which is added in a DR, as well as additional wells with only 20 μM. 20 μM of reference compound A1 represent the positive stimulator control, TCB only (DMSO wells) the neutral control.
After transfer of T-cells with treatment pre-dilutions, MV-3 cells are imaged by time-lapse microscopy using IncucyteZOOM™ (Essen BioScience, MI, USA). Imaging is performed every 3 hours for a total of 120 hours (10× objective, phase and red image channels, acquisition time 400 ms, Green/Red 4614 optical module). RFP object count per well is analysed in the IncucyteZOOM™ Software (Version 2019B Rev2) with a mask that was previously created and optimized for MV-3 cells. Raw data is exported as object count/well and values are normalized as % TCL compared to wells with MV-3 only, representing 100% growth and therefore 0% TCL.
Calculated % TCL values are analysed in Genedata Screener using Roche Normalization PCT_POS_CTRL with MCSP-TCB only set as Neutral Control and 20 μM of the reference compound A1 set as Stimulator Control/100%.
Induced TCL by compounds without TCB treatment or toxicity (observed in the PBS condition) were be flagged.

Assay [3] concerns the target T2, DGKζ (hDGKzeta(1-928)-N-His) (Homo sapiens, UniProt Q13574).
T2 construct: hDGKzeta(1-928)-N-His; His (N); made in house; host or cells: Sf21 insect cells (baculovirus)
Kind of assay: In vitro DGK inhibition assay, DGKzeta ADP Glo (in house). In kind it is biochemical. The settings on record: 2 nM DGKζ, 50 μM ATP, 125 uM DLG in liposomes, 1 hour reaction. The essentials: as §1

The target in assay [4] is T3, DGK ζ kinase (Homo sapiens, UniProt Q13574).
T3 construct: purchased Reaction Biology Corp. (contract assay service)
Kind of assay: DGKzeta kinase ADP Glo assay run by Reaction Biology Corp. It counts as biochemical. The settings on record: 2 nM kinase, 50 µM ATP, 500 μM DLG, 10-dose duplicate. As to the method:
DGK α and ζ kinases use ATP to phosphorylate the substrate 1,2-dilauroyl-sn-glycerol (DLG). ATP is converted to ADP as a result of this enzymatic reaction.
After the kinase reaction, an ATP-depletion reagent is added to terminate the kinase reaction and deplete any remaining ATP, leaving only ADP. Second, a detection reagent is added to simultaneously convert ADP to ATP and allow the newly synthesized ATP to be converted to light using a coupled luciferase/luciferin reaction.
DGK α and ζ kinase ADP Glo assays were ran by Reaction Biology Corp., 1 Great Valley Parkway, Suite 2, Malvern, 19355, PA, USA. Information provided by the service provider are the following: DGK α and ζ kinases were used at 2 nM final concentration. Reactions were carried out at 50 µM ATP. 500 μM of the substrate DLG (Dilauroyl-sn-glycerol) was used.

T1 sequence (P23743 whole entry): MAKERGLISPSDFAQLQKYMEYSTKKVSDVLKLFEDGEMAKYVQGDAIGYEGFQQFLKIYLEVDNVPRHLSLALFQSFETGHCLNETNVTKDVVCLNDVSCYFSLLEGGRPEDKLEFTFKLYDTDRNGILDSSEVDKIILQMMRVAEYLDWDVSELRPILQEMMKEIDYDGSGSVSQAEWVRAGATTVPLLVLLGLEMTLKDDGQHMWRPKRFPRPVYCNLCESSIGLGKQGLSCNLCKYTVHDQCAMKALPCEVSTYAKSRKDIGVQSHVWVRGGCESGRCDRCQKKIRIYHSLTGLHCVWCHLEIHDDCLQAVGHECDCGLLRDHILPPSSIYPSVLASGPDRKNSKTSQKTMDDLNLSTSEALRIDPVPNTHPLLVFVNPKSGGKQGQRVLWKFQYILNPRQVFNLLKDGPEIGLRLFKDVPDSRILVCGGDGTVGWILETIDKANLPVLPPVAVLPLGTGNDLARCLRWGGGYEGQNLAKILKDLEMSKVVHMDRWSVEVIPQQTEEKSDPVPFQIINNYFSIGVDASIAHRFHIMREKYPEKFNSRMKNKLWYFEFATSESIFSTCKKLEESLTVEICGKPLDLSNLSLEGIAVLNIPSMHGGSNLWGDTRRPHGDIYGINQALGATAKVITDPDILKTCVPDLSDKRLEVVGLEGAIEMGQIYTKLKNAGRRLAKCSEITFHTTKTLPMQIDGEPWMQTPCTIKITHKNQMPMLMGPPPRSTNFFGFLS
T3 sequence (Q13574 whole entry): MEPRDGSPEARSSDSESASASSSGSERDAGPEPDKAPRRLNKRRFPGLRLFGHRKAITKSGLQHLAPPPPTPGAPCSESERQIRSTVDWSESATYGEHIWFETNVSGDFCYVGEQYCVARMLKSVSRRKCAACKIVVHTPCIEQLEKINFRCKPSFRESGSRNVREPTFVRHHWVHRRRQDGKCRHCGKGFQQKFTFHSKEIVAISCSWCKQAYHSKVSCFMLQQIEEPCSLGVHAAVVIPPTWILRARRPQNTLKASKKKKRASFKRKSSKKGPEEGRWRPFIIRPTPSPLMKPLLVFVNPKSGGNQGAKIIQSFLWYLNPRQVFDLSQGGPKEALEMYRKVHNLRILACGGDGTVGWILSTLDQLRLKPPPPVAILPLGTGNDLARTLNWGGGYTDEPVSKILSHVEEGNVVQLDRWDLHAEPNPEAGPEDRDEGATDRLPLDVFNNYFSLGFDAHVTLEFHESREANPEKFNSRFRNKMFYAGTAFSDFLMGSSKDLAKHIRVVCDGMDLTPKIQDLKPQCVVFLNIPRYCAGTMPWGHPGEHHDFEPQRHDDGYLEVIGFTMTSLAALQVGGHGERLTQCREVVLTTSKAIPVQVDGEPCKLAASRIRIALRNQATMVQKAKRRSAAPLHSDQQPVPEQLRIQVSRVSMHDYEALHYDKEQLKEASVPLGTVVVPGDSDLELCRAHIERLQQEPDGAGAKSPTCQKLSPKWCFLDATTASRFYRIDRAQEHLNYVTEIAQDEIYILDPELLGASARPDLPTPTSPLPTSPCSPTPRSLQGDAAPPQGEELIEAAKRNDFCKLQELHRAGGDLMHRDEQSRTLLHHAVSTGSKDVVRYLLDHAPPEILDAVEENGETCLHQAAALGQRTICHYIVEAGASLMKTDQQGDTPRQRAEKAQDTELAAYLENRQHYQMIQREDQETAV
T2 sequence (Q13574 whole entry): as above

One may read the IC50 as the concentration that gives 50% inhibition. High values mean lower potency, low ones higher potency. The Emax is the maximal effect, on the per cent scale that the assay sets. What is called EC50 is the concentration giving half of the maximal effect. Regarding `N[C@H]1CS(=O)(=O)c2ccc(-c3nnc(C4(N)CCCCC4)o3)cc2N(Cc2ccc(-c3noc(C(F)(F)F)n3)cc2)C1=O` [Example 39, (3R)-3-amino-7-[5-(1-aminocyclohexyl)-1,3,4-oxadiazol-2-yl]-1,1-dioxo-5-[[4-[5-(trifluoromethyl)-1,2,4-oxadiazol-3-yl]phenyl]methyl]-2,3-dihydro-1λ^6,5-benzothiazepin-4-one], the IC50 in assay [1] was 19 µM; in assay [3], 1780 nM; in assay [4], 56.4 nM. For the same compound, in assay [2] (Homo sapiens, MV-3, 120 h, % TCL normalized: MCSP-TCB only = neutral control, 20 μM reference compound A1 = 100%, read-out: MSCP TCB killing MV-3 cells 5 d Emax (%)), the maximal response (Emax) came out at 72%. Also, in assay [2] (primary human T-cells + MV-3 RFP cells, MCSP-TCB 1.5 pM-5 pM, 120 hours imaging, read-out: MSCP TCB killing MV-3 cells 5 d EC50), the EC50 was 190 nM.
